Test results published in patent publication US20190060257A1, “ANALGESIC COMPOUNDS” (ZENO ROYALTIES & MILESTONES, LLC, priority 2016, published 2019).

Tested on: male ICR mice
Assay: Formalin Paw Test
Format: in vivo, mouse
Details: 30 mg/kg, intraperitoneal administration; for Early Phase: early/acute phase (0-10 minutes) after 2% formalin into hind paw; for Late Phase: late/tonic phase (10-35 minutes) after 2% formalin into hind paw
Protocol: One test compound or the vehicle was administered to each mouse in each test group (8 mice per group). Non-fasted male ICR mice weighing 23±3 g were used. Test compounds were administered at a concentration of 3 mg/kg, 10 mg/kg, 15 mg/kg, 30 mg/kg, 60 mg/kg, 100 mg/kg, 200 mg/kg or 300 mg/kg; morphine was administered at a concentration of 5 mg/kg; and acetaminophen was administered at a concentration of 200 mg/kg. The control group received the vehicle (5% DMSO/40% PEG400/20% HPbCD/Saline). After 30 or 60 minutes, a 2% formalin solution (0.02 mL) was injected into one hind paw (sub-plantar) of each mouse. Responses were measured every 5 minutes after the formalin injection for 35 minutes.
The results in Table A are for intraperitoneal administration. In Table A, ‘A’ designates <70 licks/sec, ‘B’ designates ≥70 licks/sec and <165 licks/sec, and ‘C’ designates ≥165 licks/sec.

SMILES	Early Phase	Late Phase
CC12CC3CC(C)(C1)CC(N)(C3)C2 [Compound 19]	A (‘A’ designates <70 licks/sec)	A (‘A’ designates <70 licks/sec)
N[C@H]1C[C@H](O)C1 [trans-1]	B (‘B’ designates ≥70 licks/sec and <165 licks/sec)	C (‘C’ designates ≥165 licks/sec)
NC1CCCCCC1 [Compound 11]	A (‘A’ designates <70 licks/sec)	C (‘C’ designates ≥165 licks/sec)
NCC1CC(F)(F)C1 [Compound 6]	B (‘B’ designates ≥70 licks/sec and <165 licks/sec)	B (‘B’ designates ≥70 licks/sec and <165 licks/sec)
NC1CCC(F)(F)C1 (centres unmarked) [Compound 8]	B (‘B’ designates ≥70 licks/sec and <165 licks/sec)	B (‘B’ designates ≥70 licks/sec and <165 licks/sec)
NC1CC2(C1)CC(O)C2 (centres unmarked) [Compound 14]	B (‘B’ designates ≥70 licks/sec and <165 licks/sec)	B (‘B’ designates ≥70 licks/sec and <165 licks/sec)
NC12CC3CC(C1)CC(C(F)(F)F)(C3)C2 [Compound 20]	A (‘A’ designates <70 licks/sec)	A (‘A’ designates <70 licks/sec)
NC1CCC(F)(F)CC1 [Compound 9]	A (‘A’ designates <70 licks/sec)	A (‘A’ designates <70 licks/sec)
N[C@H]1C[C@@H](O)C1 [cis-1]	B (‘B’ designates ≥70 licks/sec and <165 licks/sec)	C (‘C’ designates ≥165 licks/sec)
NC1CCCC(C(F)(F)F)C1 (centres unmarked) [Compound 10]	A (‘A’ designates <70 licks/sec)	A (‘A’ designates <70 licks/sec)
NC1CC(F)(F)C1 [Compound 2]	B (‘B’ designates ≥70 licks/sec and <165 licks/sec)	B (‘B’ designates ≥70 licks/sec and <165 licks/sec)
NC1CC2(C1)CC(N)C2 (centres unmarked) [Compound 13]	B (‘B’ designates ≥70 licks/sec and <165 licks/sec)	B (‘B’ designates ≥70 licks/sec and <165 licks/sec)
NC12CCC(C(F)(F)F)(CC1)CC2 [Compound 18]	B (‘B’ designates ≥70 licks/sec and <165 licks/sec)	B (‘B’ designates ≥70 licks/sec and <165 licks/sec)
